Like-named read-outs stand apart in the source and are kept apart here.
Legend:
[1] = Pharmacokinetic study in control and DSS-induced UC rats after oral administration of LXF (serum, UPLC-MS/MS); format: in vivo, Sprague-Dawley (SD) rats; details: for AUC(0-inf) / AUC(0-t) / Cmax / Tmax / half-life / MRT inf: male, Sprague-Dawley, rat, serum, po, 3.3 g/kg, oral LXF 3.30 g/kg, rat serum, n = 8, mean ± SD; for MRT inf: read-out: MRT0→∞
Description: Sixteen male Sprague-Dawley (SD) rats (220 ± 10 g) were provided from the Liaoning Changsheng Biotechnology Co., Ltd (Benxi, China; with license No. of SCXK, 2020-0001). The rats were kept in an environment (22 ± 2°C, relative humidity 50 ± 5%) under a 12-h light-dark cycle with a free diet and water for 3 days. All experiments on animals were conducted strictly under the related ethics regulations of the Committee on Use and Care of Animals of Guangzhou University of Chinese Medicine (Guangzhou, China) (No. 712052).
All rats were assigned equally and randomly to the control and model groups. The rats of the model group were free to access 4% DSS for 7 days to induce UC, and rats of the control group were given pure water ([Chen et al., 2020]). Before the pharmacokinetics study, the DSS-induced UC rats (model) were established successfully (Supplementary Material Part B).
After fasting for 12 h, the rats were orally administered LXF at a 3.30 g/kg dose according to Prescription preparation of Chinese medicine, volume 10 ([Lu et al., 2021]). Serum samples (approximately 0.5 ml) were collected from the fosse orbital vein using 1.5 ml polythene tubes before the administration and at 0.083, 0.25, 0.5, 1, 1.5, 2.5, 4, 6, 8, 12, 24, 36, and 48 h after dosing and centrifuged immediately at 3,500 rpm for 15 min. Serum was transferred into clean tubes and stored at −80°C.
100 μl of IS solution (960 ng/ml) was added to a 100 μl serum sample and vortex-mixed for 0.5 min, and then 800 μl of methanol was added and vortex-mixed for 3 min. After centrifugation at 12,000 rpm for 15 min (4°C), the supernatant of the mixture was transferred to another vial and evaporated to dryness with nitrogen purging. The residue was resolved with 100 μ of methanol, vortex-mixed for 1 min, and centrifuged at 12,000 rpm for 10 min (4°C). A 2 μl aliquot of the supernatant was injected into the UPLC-MS/MS system for analysis.
Chromatographic analysis was performed using UPLC-MS/MS, utilizing a Finnigan Surveyor auto-sampler and a Finnigan Surveyor LC pump combined with a triple quadrupole TSQ Quantum mass spectrometer electrospray ionization (ESI) interface (Thermo Fisher, Palo Alto, CA). The chromatographic separation was performed on the Waters Acquity UPLC BEH C18 column (2.1 mm × 100 mm; 1.7 µm). The mobile phase consisted of acetonitrile (A) and 0.1% formic acid (B) with a gradient elution program (0-5 min, 20% A-35% A; 5-6 min, 35% A-100% A; 6–8min, 100% A; 8–8.5 min, 100% A-20% A; 8.5–10.5 min, 20% A) at a flow rate of 0.4 ml/min. The column temperature was maintained at 40°C throughout the analysis. The injection volume was 2 μl.
Quantification was performed using multiple reaction monitoring (MRM) in the positive ionization mode, and the optimized MRM parameters of the four analytes and IS are listed in Table 1. The MRM transition, retention time (RT), and collision energy (CE) values were based on Thermo Foundation 2.0. Curtain gas pressure at 35 psi, ion source gas 1 and gas 2 at 55 psi, ion spray voltage at 5500 V, and temperature at 500°C.
Non-compartment model pharmacokinetic parameters, including the time to reach the maximum serum concentration (Tmax), the maximum serum concentration (Cmax), the elimination half-time (T1/2), the area under the serum concentration-time curve (AUC), and mean residence time (MRT), were calculated by DAS (version 3.2.8, Chinese Pharmacological Association, Anhui, China). The difference between the control and model groups was statistically analyzed using SPSS 26.0 (IBM Company, Chicago). All data in this study were subjected to a one-way analysis of variance (ANOVA) and then expressed by mean ± standard deviation (SD). LSD t-test was applied when the homogeneity of variance assumptions was satisfied; otherwise, Dunnett’s t-test was used. A p < 0.05 was considered statistically significant.

[2] = Stability test of QC samples in rat serum; format: in vitro ADME; details: n = 6
Description: Quality control (QC) samples at low, middle and high concentrations (61.50, 384.38, and 4,000.00 ng/ml for andrographolide; 24.00, 150.00, and 1,500.00 ng/ml for dehydroandrographolide; 6.91, 43.20, and 450.00 ng/ml for 1-methoxicabony-β-carboline; 6.30, 39.38, and 400.00 ng/ml for 4-methoxy-5-hydroxy-canthin-6-one) were also prepared by the same procedures.
Recovery was determined at three QC levels and calculated by comparing the compound standard peak areas obtained from extracted samples with post-extracted samples spiked with the compound. Matrix effects were calculated by matching spiking post-extracted blank serum samples with corresponding standard clean solutions at three concentrations of QC samples.

[3] = 4°C for 24 h, high QC (nominal 4,000.00 / 1,500.00 / 450.00 / 400.00 ng/ml for compounds 1-4)
[4] = 4°C for 24 h, low QC (nominal 61.50 / 24.00 / 6.91 / 6.30 ng/ml for compounds 1-4)
[5] = 4°C for 24 h, middle QC (nominal 384.38 / 150.00 / 43.20 / 39.38 ng/ml for compounds 1-4)
[6] = 25°C for 12 h, high QC (nominal 4,000.00 / 1,500.00 / 450.00 / 400.00 ng/ml for compounds 1-4)
[7] = 25°C for 12 h, low QC (nominal 61.50 / 24.00 / 6.91 / 6.30 ng/ml for compounds 1-4)
[8] = 25°C for 12 h, middle QC (nominal 384.38 / 150.00 / 43.20 / 39.38 ng/ml for compounds 1-4)
[9] = three freeze-thaw, high QC (nominal 4,000.00 / 1,500.00 / 450.00 / 400.00 ng/ml for compounds 1-4)
[10] = three freeze-thaw, low QC (nominal 61.50 / 24.00 / 6.91 / 6.30 ng/ml for compounds 1-4)
[11] = three freeze-thaw, middle QC (nominal 384.38 / 150.00 / 43.20 / 39.38 ng/ml for compounds 1-4)
[12] = −80°C for 30 days, high QC (nominal 4,000.00 / 1,500.00 / 450.00 / 400.00 ng/ml for compounds 1-4)
[13] = −80°C for 30 days, low QC (nominal 61.50 / 24.00 / 6.91 / 6.30 ng/ml for compounds 1-4)
[14] = −80°C for 30 days, middle QC (nominal 384.38 / 150.00 / 43.20 / 39.38 ng/ml for compounds 1-4)

Row | SMILES | AUC(0-inf) ([1]; UC group (4% DSS for 7 days)) | AUC(0-t) ([1]; UC group (4% DSS for 7 days)) | Cmax ([1]; UC group (4% DSS for 7 days)) | Tmax ([1]; UC group (4% DSS for 7 days)) | half-life ([1]; UC group (4% DSS for 7 days)) | MRT inf ([1]; UC group (4% DSS for 7 days)) | AUC(0-inf) ([1]; control group) | AUC(0-t) ([1]; control group) | Cmax ([1]; control group) | Tmax ([1]; control group) | half-life ([1]; control group) | MRT inf ([1]; control group) | Stability, mean concentration found [2, 3] | Stability, mean concentration found [2, 4] | Stability, mean concentration found [2, 5] | Stability, mean concentration found [2, 6] | Stability, mean concentration found [2, 7] | Stability, mean concentration found [2, 8] | Stability, mean concentration found [2, 9] | Stability, mean concentration found [2, 10] | further results
1 | COc1c(O)c(=O)n2c3ccccc3c3ccnc1c32 [4-methoxy-5-hydroxy-canthin-6-one] | 817 ± 177 ng·h/mL | 759 ± 142 ng·h/mL | 419 ± 104 ng/mL | 0.43 ± 0.47 h | 3.3 ± 1.52 h | 3.66 ± 1.55 h | 595 ± 117 ng·h/mL | 554 ± 74.2 ng·h/mL | 395 ± 97.7 ng/mL | 0.08 h | 3.15 ± 0.96 h | 3.59 ± 1.43 h | 391.53 ± 10.08 ng/mL | 6.38 ± 0.41 ng/mL | 39.35 ± 4.12 ng/mL | 387.02 ± 9.84 ng/mL | 5.50 ± 0.37 ng/mL | 40.41 ± 3.15 ng/mL | 386.59 ± 20.07 ng/mL | 5.65 ± 0.12 ng/mL | Shape of the serum concentration-time curve ([1]; UC group, oral LXF): double peaks; Shape of the serum concentration-time curve ([1]; control group, oral LXF): not showed; Stability, mean concentration found [2, 11]: 41.43 ± 0.76 ng/mL; Stability, mean concentration found [2, 12]: 381.78 ± 17.23 ng/mL; Stability, mean concentration found [2, 13]: 6.39 ± 0.23 ng/mL; Stability, mean concentration found [2, 14]: 42.93 ± 1.44 ng/mL
2 | COC(=O)c1nccc2c1[nH]c1ccccc12 [1-methoxicabony-β-carboline] | 444 ± 154 ng·h/mL | 424 ± 143 ng·h/mL | 160 ± 18.9 ng/mL | 1.13 ± 0.23 h | 1.2 ± 0.41 h | 2.23 ± 0.63 h | 219 ± 79.2 ng·h/mL | 215 ± 78.4 ng·h/mL | 129 ± 33.9 ng/mL | 0.69 ± 0.37 h | 1.02 ± 0.43 h | 1.52 ± 0.33 h | 442.09 ± 15.98 ng/mL | 7.71 ± 0.12 ng/mL | 44.64 ± 3.27 ng/mL | 439.66 ± 16.78 ng/mL | 7.09 ± 0.16 ng/mL | 42.21 ± 3.37 ng/mL | 440.84 ± 17.31 ng/mL | 6.63 ± 0.51 ng/mL | Tmax and MRT0–∞ in the UC group compared with the control group ([1]; oral LXF, p < 0.05): longer; Stability, mean concentration found [2, 11]: 42.04 ± 2.18 ng/mL; Stability, mean concentration found [2, 12]: 436.91 ± 13.57 ng/mL; Stability, mean concentration found [2, 13]: 7.43 ± 0.66 ng/mL; Stability, mean concentration found [2, 14]: 42.66 ± 1.92 ng/mL
3 | C=C1CC[C@@H]2[C@](C)(CO)[C@H](O)CC[C@@]2(C)[C@@H]1C/C=C1/C(=O)OC[C@H]1O [andrographolide] | 18400 ng·h/mL | 15900 ng·h/mL | 4090 ng/mL | 0.69 ± 0.26 h | 7.4 ± 5.02 h | 7.4 ± 5.02 h | 7120 ng·h/mL | 6430 ng·h/mL | 2310 ng/mL | 0.53 ± 0.21 h | 8.77 ± 2.96 h | 8.42 ± 2.75 h | 3,915.74 ± 98.45 ng/mL | 58.54 ± 4.47 ng/mL | 383.22 ± 9.64 ng/mL | 3,896.61 ± 129.89 ng/ml | 56.68 ± 4.20 ng/mL | 399.59 ± 9.79 ng/mL | 3,923.07 ± 110.39 ng/mL | 60.13 ± 3.34 ng/mL | Stability, mean concentration found [2, 11]: 396.68 ± 13.05 ng/mL; Stability, mean concentration found [2, 12]: 3,904.68 ± 126.18 ng/ml; Stability, mean concentration found [2, 13]: 58.97 ± 2.93 ng/mL; Stability, mean concentration found [2, 14]: 370.23 ± 17.30 ng/mL
4 | C=C1CC[C@@H]2[C@](C)(CO)[C@H](O)CC[C@@]2(C)[C@H]1C/C=C1\C=COC1=O [dehydroandrographolide] | 4790 ng·h/mL | 4690 ng·h/mL | 1150 ng/mL | 0.38 ± 0.13 h | 2.86 ± 2.01 h | 5.08 ± 1.53 h | 2360 ng·h/mL | 2330 ng·h/mL | 892 ± 148 ng/mL | 0.28 ± 0.09 h | 2.28 ± 1.69 h | 5.04 ± 1.96 h | 1,421.52 ± 61.75 ng/mL | 25.71 ± 1.69 ng/mL | 156.59 ± 14.58 ng/mL | 1,439.13 ± 52.46 ng/ml | 23.51 ± 0.69 ng/mL | 153.93 ± 10.00 ng/mL | 1,428.09 ± 67.73 ng/mL | 21.20 ± 2.30 ng/mL | Shape of the serum concentration-time curve ([1]; UC group, oral LXF): double peaks; Shape of the serum concentration-time curve ([1]; control group, oral LXF): double peaks; Stability, mean concentration found [2, 11]: 143.60 ± 9.61 ng/mL; Stability, mean concentration found [2, 12]: 1,419.63 ± 51.60 ng/ml; Stability, mean concentration found [2, 13]: 22.46 ± 2.57 ng/mL; Stability, mean concentration found [2, 14]: 151.06 ± 3.31 ng/mL
